Measurements from PMC7125101, “Molecular bases for HOIPINs-mediated inhibition of LUBAC and innate immune responses” (Communications Biology, 2020).
Counter-ions that a name gives are not always drawn. Like-named read-outs stand apart in the source and are kept apart here. Values belong to the compound of their own block, whether it stands above or below them.

Key:
HEK293T = assay: cells; design: species or system human tumour lines, mouse MEF; Cell viability after 72 h, CellTiter-Glo luminescent assay; settings: Homo sapiens, HEK-293T, 72 h
Excerpt: Importantly, the polymorphisms in HOIP are closely associated with ABC-DLBCL[23]. […] Therefore, we investigated the effect of HOIPINs on B cell lymphoma cells. […] In ABC-DLBCL cell lines, the phosphorylation of p105 and p65 and the expression of NF-κB target genes were suppressed by HOIPINs (Fig. 6d, e). Moreover, the phosphorylation of IκBα was decreased concomitantly with the reduced intracellular amounts of linear polyubiquitin in HOIPIN-1-treated HBL1 cells (an ABC-DLBCL cell line), but not in BJAB cells (a GCB-DLBCL cell line) (Fig. 6f). […] GCB-DLBCL cells (BJAB, SU-DHL-4, and HT) and ABC-DLBCL cells (TK, DLBCL2, and OYB) were cultured in the presence of DMSO or 10 μM HOIPIN-1. Taking the cell viabilities in the presence of DMSO as 100%, the relative cell viabilities of respective cell line in the presence of HOIPIN-1 were assessed by a CellTiter-Glo luminescent cell viability assay. b HOIPIN-8 enhanced the cell death of ABC-DLBCL cells than HOIPIN-1. DLBCL2 cells or BJAB cells were treated with DMSO, 10 μM HOIPIN-1, or 10 μM HOIPIN-8 for the indicated period, and the relative cell viabilities were assessed as in a. c Caspase activation in ABC-DLBCL cells by HOIPIN-8. […] Cells were treated and analyzed as in c. e HOIPIN-1 suppresses the expression of NF-κB target genes in ABC-DLBCL cells. […]

HBL1 = assay: cells; design: species or system human tumour lines, HEK293T, mouse MEF; Cell viability after 72 h, CellTiter-Glo luminescent assay; settings: HBL1, 72 h
Karpas1160P = assay: cells; design: species or system human tumour lines, HEK293T, mouse MEF; Cell viability after 72 h, CellTiter-Glo luminescent assay; settings: Homo sapiens, HEK-293T, 72 h
A549 = assay: cells; design: species or system human tumour lines, HEK293T, mouse MEF; Cell viability after 72 h, CellTiter-Glo luminescent assay; settings: Homo sapiens, A549, 72 h
OYB = assay: cells; design: species or system human tumour lines, HEK293T, mouse MEF; Cell viability after 72 h, CellTiter-Glo luminescent assay; settings: Homo sapiens, HEK-293T, 72 h
TK = assay: cells; design: species or system human tumour lines, HEK293T, mouse MEF; Cell viability after 72 h, CellTiter-Glo luminescent assay; settings: Homo sapiens, HEK-293T, 72 h
Jurkat = assay: cells; design: species or system human tumour lines, HEK293T, mouse MEF; Cell viability after 72 h, CellTiter-Glo luminescent assay; settings: Homo sapiens, Jurkat, 72 h
HeLa = assay: cells; design: species or system human tumour lines, HEK293T, mouse MEF; Cell viability after 72 h, CellTiter-Glo luminescent assay; settings: Homo sapiens, HeLa, 72 h
DLBCL2 = assay: cells; design: species or system human tumour lines, HEK293T, mouse MEF; Cell viability after 72 h, CellTiter-Glo luminescent assay; settings: Homo sapiens, HEK-293T, 72 h; read-out: HOIPIN-1 (IC50)
KM-H2 = assay: cells; design: species or system human tumour lines, HEK293T, mouse MEF; Cell viability after 72 h, CellTiter-Glo luminescent assay; settings: Homo sapiens, KM-H2, 72 h
SU-DHL-4 = assay: cells; design: species or system human tumour lines, HEK293T, mouse MEF; Cell viability after 72 h, CellTiter-Glo luminescent assay; settings: Homo sapiens, SU-DHL-4, 72 h
HT = assay: cells; design: species or system human tumour lines, HEK293T, mouse MEF; Cell viability after 72 h, CellTiter-Glo luminescent assay; settings: Homo sapiens, HT, 72 h
BJAB = assay: cells; design: species or system human tumour lines, HEK293T, mouse MEF; Cell viability after 72 h, CellTiter-Glo luminescent assay; settings: Homo sapiens, BJAB, 72 h
HOIP = biological target: T1, HOIP (Homo sapiens, UniProt Q96EP0); assay: X-ray crystal structure at […] Å; also MALDI-TOF intact mass adduct (+[…]) on petit-LUBAC and inhibition of HOIP~ubiquitin thioester formation; format: binding
T1 construct: gene RNF31; RING2-LDD domain, residues 853–1072

cpdm MEF = system: T2, cpdm MEF; assay: cells; design: species or system human tumour lines, HEK293T, mouse MEF; Cell viability after 72 h, CellTiter-Glo luminescent assay; settings: 72 h
T2 construct: cpdm (Sharpin-deficient)
Excerpt: (§1) Importantly, the polymorphisms in HOIP are closely associated with ABC-DLBCL[23]. […] Therefore, we investigated the effect of HOIPINs on B cell lymphoma cells. […] In ABC-DLBCL cell lines, the phosphorylation of p105 and p65 and the expression of NF-κB target genes were suppressed by HOIPINs (Fig. 6d, e). Moreover, the phosphorylation of IκBα was decreased concomitantly with the reduced intracellular amounts of linear polyubiquitin in HOIPIN-1-treated HBL1 cells (an ABC-DLBCL cell line), but not in BJAB cells (a GCB-DLBCL cell line) (Fig. 6f). […] GCB-DLBCL cells (BJAB, SU-DHL-4, and HT) and ABC-DLBCL cells (TK, DLBCL2, and OYB) were cultured in the presence of DMSO or 10 μM HOIPIN-1. Taking the cell viabilities in the presence of DMSO as 100%, the relative cell viabilities of respective cell line in the presence of HOIPIN-1 were assessed by a CellTiter-Glo luminescent cell viability assay. b HOIPIN-8 enhanced the cell death of ABC-DLBCL cells than HOIPIN-1. DLBCL2 cells or BJAB cells were treated with DMSO, 10 μM HOIPIN-1, or 10 μM HOIPIN-8 for the indicated period, and the relative cell viabilities were assessed as in a. c Caspase activation in ABC-DLBCL cells by HOIPIN-8. Cells were treated with or without 10 μM HOIPIN-8 for 24 h, and cell lysates were immunoblotted with the indicated antibodies. d Reduced NF-κB activation in ABC-DLBCL cells by HOIPIN-8. Cells were treated and analyzed as in c. e HOIPIN-1 suppresses the expression of NF-κB target genes in ABC-DLBCL cells. Cells were treated with 10 μM HOIPIN-1 for 24 h, and qPCR analyses were performed. f Intracellular linear ubiquitin and IκBα phosphorylation in ABC-DLBCL cells are diminished by HOIPIN-1. HBL1 and BJAB cells were treated with 10 μM HOIPIN-1 for the indicated period, and cell lysates were immunoblotted with the indicated antibodies. g HOIPIN-8 has potent inhibitory effects on NF-κB activation and linear ubiquitination in ABC-DLBCL cells than those in HOIPIN-1. HBL1 cells were treated with the indicated concentrations of HOIPIN-1 or -8 for 24 h, and cell lysates were immunoblotted with the indicated antibodies. In b, e, data are shown as mean ± SEM, NS not significant, *P < 0.05, **P < 0.01, ***P < 0.001, ****P < 0.0001, by one-way ANOVA with Tukey’s post hoc test. A549, HEK293T, HeLa (ATCC), optineurin-deficient HeLa[31], HOIP-deficient HeLa, C885A mutant of HOIP-restored HeLa, wild-type MEF, and Sharpin-deficient cpdm MEF cells were cultured in DMEM containing 10% fetal bovine serum, 100 IU/ml penicillin G, and 100 μg/ml streptomycin. […]

WT-MEF = assay: cells; design: species or system human tumour lines, HEK293T, mouse MEF; Cell viability after 72 h, CellTiter-Glo luminescent assay; settings: 72 h
Excerpt: as §1

IC50 (Karpas1160P; read-out: HOIPIN-1 (IC50)): 11 µM | IC50 (A549; read-out: HOIPIN-1 (IC50)): > 100 µM | IC50 (Jurkat; read-out: HOIPIN-1 (IC50)): 20.6 µM | IC50 (HeLa; read-out: HOIPIN-1 (IC50)): 33.7 µM | IC50 (SU-DHL-4; read-out: HOIPIN-1 (IC50)): 46.9 µM
SMILES: COc1ccccc1C(=O)/C=C/c1ccccc1C(=O)O [HOIPIN-1, 2-[(1E)-3-(2-methoxyphenyl)-3-oxoprop-1-en-1yl] benzoic acid sodium salt]
IC50 (HEK293T; read-out: HOIPIN-1 (IC50)): 40.3 µM | IC50 (HBL1; read-out: HOIPIN-1 (IC50)): 16.4 µM | IC50 (OYB; read-out: HOIPIN-1 (IC50)): 16 µM | IC50 (TK; read-out: HOIPIN-1 (IC50)): 9.7 µM | IC50 (DLBCL2): 11.1 µM | IC50 (KM-H2; read-out: HOIPIN-1 (IC50)): 9.6 µM | IC50 (HT; read-out: HOIPIN-1 (IC50)): 48.2 µM | IC50 (BJAB; read-out: HOIPIN-1 (IC50)): 52.2 µM | X-ray crystal structure at 1.54 Å; also MALDI-TOF intact mass adduct (+263) on p (HOIP): HOIPINs are covalently attached to the catalytic Cys885 of HOIP via Michael addition | IC50 (cpdm MEF; read-out: HOIPIN-1 (IC50)): > 100 µM | IC50 (WT-MEF; read-out: HOIPIN-1 (IC50)): > 100 µM

IC50 (Karpas1160P; read-out: HOIPIN-8 (IC50)): 27.6 µM | IC50 (A549; read-out: HOIPIN-8 (IC50)): > 100 µM | IC50 (Jurkat; read-out: HOIPIN-8 (IC50)): > 100 µM | IC50 (HeLa; read-out: HOIPIN-8 (IC50)): > 100 µM | IC50 (SU-DHL-4; read-out: HOIPIN-8 (IC50)): > 30 µM
SMILES: Cn1cc(-c2ccc(C(=O)O)c(/C=C/C(=O)c3c(F)cc(-c4cn[nH]c4)cc3F)c2)cn1 [HOIPIN-8, 2-{(E)-3-[2,6-difluoro-4-(1H-pyrazol-4-yl)-phenyl]-3-oxo-propenyl}-4-(1-methyl-1H-pyraol-4-yl)-benzoic acid sodium salt]
IC50 (HEK293T; read-out: HOIPIN-8 (IC50)): 70.3 µM | IC50 (HBL1; read-out: HOIPIN-8 (IC50)): 16.7 µM | IC50 (OYB; read-out: HOIPIN-8 (IC50)): 14.4 µM | IC50 (TK; read-out: HOIPIN-8 (IC50)): 3.7 µM | IC50 (KM-H2; read-out: HOIPIN-8 (IC50)): 40.7 µM | IC50 (HT; read-out: HOIPIN-8 (IC50)): > 30 µM | IC50 (BJAB; read-out: HOIPIN-8 (IC50)): > 30 µM | IC50 (cpdm MEF; read-out: HOIPIN-8 (IC50)): 51.8 µM | IC50 (WT-MEF; read-out: HOIPIN-8 (IC50)): 49.7 µM
